The numbers were not newly measured in patent publication US12324852B2, “Administration of benzodiazepine compositions” (Neurelis, Inc., priority 2011, dated 2025), which cites them from elsewhere.

The structures appear in SMILES notation.

Turning to `Cc1ncc2n1-c1ccc(Cl)cc1C(c1ccccc1F)=NC2` [Midazolam, 8-chloro-6-(2-fluorophenyl)-1-methyl-4H-imidazo(1,5-a)benzodiazepine], the “solubility in most aqueous solutions” value (neutral pH (e.g. about 6 to 8)) is given as “relatively insoluble”. The solubility in water entry (pH lower than about 4) is on record as “soluble in water”.
